Results from patent publication US9309224B2 (Deciphera Pharmaceuticals, LLC, priority 2013, dated 2016).

Tests used:
[1] = target: T1, unphosphorylated c-KIT kinase (uKIT, Seq. ID no. 2) (Homo sapiens, UniProt P10721); test: uKit kinase assay (pyruvate kinase/lactate dehydrogenase coupled); assay type: biochemical; settings: ATP 2000 μM
T1 construct: uKit with N-terminal GST fusion used for
Method: In this assay, the oxidation of NADH (thus the decrease at A340 nm) was continuously monitored spectrophometrically. […] The inhibition reaction was started by mixing serial diluted test compound with the above reaction mixture. The absorption at 340 nm was monitored continuously for 4 hours at 30° C. on Synergy 2 plate reader (BioTech).

osteoclast precursors = test: Osteoclast tartrate-resistant acid phosphatase assay; assay type: cell-based; settings: Osteoclast; 7-14 days, RANKL and M-CSF
c-FMS = test: cFOS mRNA production in a c-FMS mouse spleen pharmacodynamic model; assay type: in vivo; settings: out to 8 h post 30 mg/kg single oral dose, read-out: inhibition of cFOS mRNA levels
Method: Analysis of cFOS mRNA Production in a c-FMS Mouse Spleen Pharmacodynamic Model To examine the in vivo modulation of FMS activity by compounds of formula I, spleen samples from female DBA/1 mice were collected and analyzed for M-CSF stimulated production of cFOS mRNA. Briefly, six to seven week old female Taconic DBA/1BO J Bom Tac mice were treated with a single oral dose (by gavage) of either vehicle or compound. Plasma and spleen samples are collected from four mice at each timepoint 2, 4, 6, 8, 12, 18, and 24 hours after dosing. Fifteen minutes prior to euthanasia, all mice were injected IV with 1 μg (100 μL fixed volume) of M-CSF. M-CSF, Recombinant Mouse Macrophage Colony Stimulating Factor (36.4 kDa homodimer, ≧98% purity) was obtained from Gibco. All procedures carried out in this experiment were conducted in compliance with all the laws, regulations and guidelines of the National Institutes of Health (NIH). cFOS mRNA levels in spleen extracts were determined using a quantitative reverse transcriptase PCR kit from Life Technologies. Plasma levels of FMS inhibitors were determined by mass spectrometer analysis. The degree of FMS inhibition was correlative to the amount of decrease observed in cFOS mRNA levels in the spleen samples of treated animals compared to vehicle.

PC-3 M-luc cells = test: PC-3 peritibial implant model of cancer bone metastasis; assay type: in vivo, mouse; settings: oral gavage twice daily; score 0-4; vehicle-treated animals score 4
Text: PC-3 Peritibial Implant Model of Cancer Bone Metastasis To evaluate in vivo anti-cancer activity of compounds of formula I, the PC-3 M-luc peritibial injection model of bone invasiveness model was employed. Briefly, PC-3 M-luc cells were obtained from Xenogen Corporation (Caliper Life Sciences) and expanded using MEM media modified with L-Glutamine (Cell Gro® #10-045-CV) supplemented with 10% fetal bovine serum, 1% penicillin-streptomycin-glutamine, 1% non-essential amino acids, and 1% MEM vitamins in 5% CO2 atmosphere at 37° C. Six to 7 week old male nude mice (Crl:NU-Foxn1nu) were obtained from Charles River Laboratories. Test mice were implanted peritibially on Day 0 with 1×10^6 cells/mouse (0.1 mL) using an insulin syringe with a fixed 28-gauge needle. The needle was inserted at the ankle between the tibia and fibula until the bevel of the needle reaches approximately half way between the knee and ankle Treatments began on Day 0. Animals were dosed by oral gavage twice daily for the study duration. All procedures carried out in this experiment were conducted in compliance with all the laws, regulations and guidelines of the National Institutes of Health (NIH). […] Lesions in the right hind limb were scored with values of 0, 1, 2, 3, or 4 based on a qualitative assessment of lesion size as defined by: 0: Normal Bone 1: Minimal lesions. […]

T1 sequence (P10721 with tags, fused parts or gaps): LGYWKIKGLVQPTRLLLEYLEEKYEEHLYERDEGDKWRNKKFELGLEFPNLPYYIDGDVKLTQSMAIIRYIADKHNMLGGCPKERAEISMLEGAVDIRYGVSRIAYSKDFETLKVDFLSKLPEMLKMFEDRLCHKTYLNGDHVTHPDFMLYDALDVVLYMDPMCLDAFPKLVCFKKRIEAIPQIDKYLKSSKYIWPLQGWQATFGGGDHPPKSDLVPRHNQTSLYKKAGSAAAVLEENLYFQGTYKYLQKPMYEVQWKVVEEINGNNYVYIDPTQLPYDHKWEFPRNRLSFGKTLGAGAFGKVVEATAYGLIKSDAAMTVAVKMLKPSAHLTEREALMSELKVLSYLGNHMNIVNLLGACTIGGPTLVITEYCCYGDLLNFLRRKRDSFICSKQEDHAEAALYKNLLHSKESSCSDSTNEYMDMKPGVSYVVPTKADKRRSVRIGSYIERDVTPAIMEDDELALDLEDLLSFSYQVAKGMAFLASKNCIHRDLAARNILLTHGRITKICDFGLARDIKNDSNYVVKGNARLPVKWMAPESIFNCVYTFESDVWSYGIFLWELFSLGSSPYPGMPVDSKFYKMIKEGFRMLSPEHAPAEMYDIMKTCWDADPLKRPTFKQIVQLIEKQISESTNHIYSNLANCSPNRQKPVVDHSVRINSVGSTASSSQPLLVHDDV

IC50 [1]: 100 to 1000 nM
IC50 (osteoclast precursors): < 10 nM
Structure (SMILES): CN1CCN(C(=O)Nc2cc(Oc3ccc(NC(=O)NC(=O)C(C)(C)C)nc3)ccn2)CC1 [Example 45, 4-methyl-N-(4-((6-(3-pivaloylureido)pyridin-3-yl)oxy)pyridin-2-yl)piperazine-1-carboxamide]
inhibition in vivo at 30 mg/kg (c-FMS): ≥ 50%
lesion score (PC-3 M-luc cells): 3
